Measurements as given in BigSolDB 2.1.

## Cc1cnc(NC(=O)C2=C(O)c3ccccc3S(=O)(=O)N2C)s1
In DMF, 293.15 K
  solubility (mole fraction): 0.0117
In DMF, 298.15 K
  solubility (mole fraction): 0.0128
In DMF, 303.15 K
  solubility (mole fraction): 0.0139
In DMF, 308.15 K
  solubility (mole fraction): 0.0153
In DMF, 313.15 K
  solubility (mole fraction): 0.0163
In formamide, 293.15 K
  solubility (mole fraction): 0.00069
In formamide, 298.15 K
  solubility (mole fraction): 0.000749
In formamide, 303.15 K
  solubility (mole fraction): 0.000802
In formamide, 308.15 K
  solubility (mole fraction): 0.000872
In formamide, 313.15 K
  solubility (mole fraction): 0.000927
In n-methylformamide, 293.15 K
  solubility (mole fraction): 0.00149
In n-methylformamide, 298.15 K
  solubility (mole fraction): 0.00159
In n-methylformamide, 303.15 K
  solubility (mole fraction): 0.00169
In n-methylformamide, 308.15 K
  solubility (mole fraction): 0.00182
In n-methylformamide, 313.15 K
  solubility (mole fraction): 0.00191
